Reference: patent publication US12422427B2, “Compounds for treatment of diseases and methods of screening therefor” (Max-Planck-Gesellschaft zur Förderung der Wissenschaften …, priority 2018, dated 2025)
“Also recorded” adds a separate entry of the source.

Tests used:
[1] = target: T1, FUS GFP (Homo sapiens, UniProt P35637); assay: In vitro purified FUS GFP droplet screen; assay type: biochemical; conditions: low salt conditions, 1 mM DTT, up to 100 μM compound
T1 construct: His MBP (N, cleaved yes); made in house; host or cells: baculovirus/insect cell expression system
T1 sequence (P35637 1-526): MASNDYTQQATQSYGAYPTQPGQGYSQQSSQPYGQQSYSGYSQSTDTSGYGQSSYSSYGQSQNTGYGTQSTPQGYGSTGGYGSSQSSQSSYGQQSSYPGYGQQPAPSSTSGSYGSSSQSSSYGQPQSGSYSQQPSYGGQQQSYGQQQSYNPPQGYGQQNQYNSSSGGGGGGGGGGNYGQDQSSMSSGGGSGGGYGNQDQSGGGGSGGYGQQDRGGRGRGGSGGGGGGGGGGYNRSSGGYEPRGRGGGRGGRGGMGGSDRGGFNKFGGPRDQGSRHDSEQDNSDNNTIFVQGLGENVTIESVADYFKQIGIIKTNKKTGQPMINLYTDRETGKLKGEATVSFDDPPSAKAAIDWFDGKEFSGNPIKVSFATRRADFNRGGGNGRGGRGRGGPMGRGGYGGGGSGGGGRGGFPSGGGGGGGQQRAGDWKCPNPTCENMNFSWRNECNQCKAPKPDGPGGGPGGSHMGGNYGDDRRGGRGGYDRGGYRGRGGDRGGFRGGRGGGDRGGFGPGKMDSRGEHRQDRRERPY
Method: Compounds that can directly interact with FUS were of primary interest, therefore the inventors performed a follow up screen for action of compounds on FUS droplet formation in vitro (FIG. 1D). […] Hits were identified by the effect on number of FUS droplets formed and the partition of FUS into the droplets formed under low salt conditions in vitro in the presence of 1 mM DTT to mimic the reducing intracellular environment (FIG. 1E).
The effect of compounds on FUS GFP droplets in vitro was assessed in 384 well plate format. The compound volume (in DMSO) necessary for 1, 3, 10, 30 or 100 μM final concentration were added by acoustic dispensing (Labcyte Echo 550) to 96 well plate wells containing 3 μl FUS GFP diluted in 50 mM Tris. HCl pH 7.4, 1 mM DTT (for low salt assays). Final DMSO concentration was 0.01 to 1%. Using a Freedom Evo 200 liquid handling workstation (TECAN) the FUS GFP/compound mixture was diluted in 7 μl assay buffer containing 50 mM Tris. HCl pH 7.4, 1 mM DTT, 50 mM KCl and 0.7 μM FUS GFP. Compound/FUS GFP and assay buffer were mixed by a standardised pipetting procedure then split to four wells in clear bottom 384 well plates then immediately imaged using a CellVoyager CV7000 automated spinning disc confocal microscope (as above). […] Droplet number and FUS GFP partition into droplets were analysed with a fixed intensity threshold using ImageJ.

[2] = target: T2, FUS eGFP condensate (Homo sapiens, UniProt P35637); assay: Optical tweezers fusion assay of FUS condensate liquidity; assay type: biochemical
T2 sequence (P35637 1-526): T1 sequence (P35637 1-526)
Method: FIG. 5A) Schematic illustrating the quantitation of condensate droplet liquidity using optical tweezers. Two droplets are brought into contact and begin to fuse the time taken to relax to a single spherical droplet (once adjusted for droplet size) is a measure of the viscosity to surface tension ratio of the droplet—a measure of liquidity. Representative of two independent replicates. FIG. 5B) Droplet size-corrected relaxation times for droplet fusions with either 300 μM lipoamide or equivalent DMSO solvent control (0.3%). Box represents the 25th, 50th and 75th percentiles, whiskers represent 5th and 95th percentiles. […] FIGS. 5C-5E) Effect of 10 μM lipoamide on G156E FUS GFP condensates (formed under dextran crowding) on ‘aging’ while shaking, relative to an equivalent DMSO solvent control (0.1%). These conditions match those previously published^7. FIG. 5C) Representative images after 30 h aging, showing fibre formation in the DMSO sample. FIG. 5D) Representative fluorescence recovery after photobleaching (FRAP) time series of FUS condensates and fibres during aging. FIG. 5E) Quantitation of FRAP in FIG. 5C). Error bars represent standard deviation. […] Both compounds delay fibre formation.
Lipoamide effect on FUS eGFP condensate liquidity (surface tension and viscosity) was determined. Here, condensate droplets were brought together by optical tweezers and the rate of fusion and relaxation to a sphere was measured (FIG. 5A).

[3] = tested on: RHO-1; assay: Protein aggregation in C. elegans: RHO-1; assay type: in vivo, Caenorhabditis elegans; conditions: 1.5 mM
Method: The effect of lipoic acid on stress granule protein aggregation in vivo was analysed using a C. elegans model for stress granule formation and aggregation. As previously described, fluorescent-tagged PAB-1 forms abundant stress granules and large solid aggregates during aging or upon chronic stress. RHO-1 and KIN-19 also aggregate during aging, but are not RNA binding or stress granule proteins. Three lines were used: Fluorescently tagged PAB-1 (DCD214: N2; uqIs24[pmyo-2::tagrfp::pab 1gene]), KIN-19 (CF3649: N2; muIs 209[pmyo-3::kin-19::tagrfp+ptph-1::GFP] and RHO-1 (DCD13: N2; uqIs9 [pmyo-2::rho-1::tagr fp+ptph-1::gfp]). Each were analysed as below, except DCD13 were maintained at 20° C.
The animals were exposed to lipoic acid in liquid culture in a 96 well plate starting from larval stage L4 in a total volume of 50 μl S-Complete per well (100 mM NaCl, 50 mM Potassium phosphate pH 6, 10 mM potassium citrate, 3 mM MgSO4, 3 mM CaCl2), 5 μg/mL cholesterol, 50 μM ethylenediaminetetraacetic acid (EDTA), 25 μM FeSO4, 10 μM MnCl2, 10 μM ZnSO4, 1 μM CuSO4) supplemented with heat-killed OP50 and 50 μg/ml carbenicillin. […] Toxicity was evaluated from the number of dead or aberrantly small-sized animals.
48 h after switching the L4s from 20° C. to 25° C. […] After immobilization with 2 mM levamisole aggregation was scored using a fluorescent stereo microscope (Leica M165 FC, Plan Apo 2.0× objective). […]

Structure (SMILES) | FUS GFP droplet number, partition into droplets and droplet size [1] | droplet size-corrected relaxation (fusion) time ([2]; 300 μM lipoamide vs 0.3% DMSO) | FUS eGFP condensate liquidity ([2]; rate of fusion and relaxation to a sphere) | concentration required for an effect on condensate liquidity in vitro ([2]; with 1 μM FUS) [µM] | RHO-1 aggregation [3]
NC(=O)CCCCC1CCSS1 (racemic) [lipoamide, 5-(1,2-dithiolan-3-yl)pentanamide] | increase condensate droplet number, partition into droplets and the droplets were larger; also recorded: larger drops | reduces fusion time | increased the liquidity by a factor of three | ~100 | 
O=C(O)CCCCC1CCSS1 (racemic) [lipoic acid, 5-(1,2-dithiolan-3-yl)pentanoic acid] |  |  |  |  | No effect
